Earlier results on 1 compound are cited in patent US20230082870A1, “COMPOSITION FOR CALCIUM SUPPLEMENTATION” (ABIOGEN PHARMA S.P.A., priority 2017, published 2023).

For this series the following is noted: state of the art.

For `O=C([O-])CC(O)(CC(=O)[O-])C(=O)[O-].O=C([O-])CC(O)(CC(=O)[O-])C(=O)[O-].[Ca+2].[Ca+2].[Ca+2]` [calcium citrate], the “Bioavailability, higher than that of calcium carbonate” value is on record as 20-30%.
